The source of these data is patent US20040033273A1, “Withasol and methods of use” (AyurCore, Inc., priority 2001, published 2004).

The test system of this test is BALB/c mouse implanted with ascitic sarcoma (S-180), CP treated. Conditions: for Hb / Platelet Count (×10^3/mcl) / RBC Count (×10^6/mcl) / WBC Difference Count (%) Lymphocytes / WBC Difference Count (%) Polymorph / WBC Total Count (×10^3/mcl): CP +: CP 150 mg/kg ip day 11, coded drug 100 mg/kg (vehicle for CP alone) po day 1-15, blood day 16; for Difference in Weight (g) from Day 1 to 16: CP +: S-180 bearing antigen-challenged mice, CP 150 mg/kg ip day 11, coded drug 100 mg/kg (vehicle for CP alone) po day 1-15; for change in body weight / change in HA antibody titers / change in HL antibody titers / change in hemoglobin content / change in platelet counts / change in red cell counts / change in white cell differential counts / change in white cell total counts: vs group IV (tumor +, CP +, vehicle), drug po day 1-15, CP 150 mg/kg ip day 11, ANOVA; for change in HA antibody titers / change in HL antibody titers / change in hemoglobin content / change in platelet counts / change in red cell counts / change in white cell differential counts / change in white cell total counts: day 16.

[1] abbreviates: Tumor +, CP +: CP 150 mg/kg ip day 11, coded drug 100 mg/kg (vehicle for CP alone) po day 1-15, serum day 16, mean +/- SD.
Setting [2] is: tumor-bearing CP-treated mice, vs CP alone.

Regarding `O=C1O[C@H]([C@@H](O)CO)C(O)=C1O` [Drug T, Vitamin C], the “change in body weight” value is recorded as “no significant change”, the “change in HA antibody titers” value is recorded as “significantly increased”, the “change in HL antibody titers” value is on record as “significantly increased” and the “change in hemoglobin content” value is listed as “significantly increased”. The “change in platelet counts” value is reported as “No significant change”, the “change in red cell counts” value is listed as “No significant change”, the “change in white cell differential counts” value is reported as “no significant change” and the “change in white cell total counts” value is reported as “significantly increased”. For the setting “Tumor +, mean +/- SD”, the “Hb” value came to 15.37 ± 1.481 g/dL, the “Platelet Count (×10^3/mcl)” value is on record as 822.67 +/− 234.142 ×10^3/mcl, the “RBC Count (×10^6/mcl)” value was 4.25 +/− 0.661 ×10^6/mcl and the “WBC Difference Count (%) Lymphocytes” value is 63.30 +/− 6.266%. Also, where the note is “Tumor +, mean +/- SD”, the “WBC Difference Count (%) Polymorph” value is recorded as 36.70 +/− 6.266%, the “WBC Total Count (×10^3/mcl)” value is given as 7.13 +/− 0.949 ×10^3/mcl and the “Difference in Weight (g) from Day 1 to 16” value was -2.67 ± 1.751 g. In addition, under setting [1], the “CF Titre (Log2)” value was 5.67 +/− 0.516 Log2 and the “HA Titre (Log2)” value was 5.33 +/− 0.516 Log2. Under setting [2], the “effect on CP-induced immunosuppression / immunostimulatory activity (conclusion)” value is “protective effect on CP-induced myelo and immunosuppression”; the “effect on CP-induced myelosuppression (conclusion)” value is “protective effect on CP-induced myelo and immunosuppression”; the “other activity indicated (conclusion)” value is recorded as “mild hematinic activity”.
On to `O=S(=O)(O)CCS` [Mesna], for which the “change in body weight” value was “no significant change”, the “change in HA antibody titers” value is listed as “no significant change”, the “change in HL antibody titers” value was “no significant change” and the “change in hemoglobin content” value is reported as “no significant change”. In addition, the “change in platelet counts” value is on record as “no significant change”, the “change in red cell counts” value is recorded as “no significant change”, the “change in white cell differential counts” value was “no significant change” and the “change in white cell total counts” value is given as “no significant change”. For the same compound, under “Tumor +, mean +/- SD”, the “Hb” value was 14.08 ± 1.689 g/dL, the “Platelet Count (×10^3/mcl)” value is given as 608.83 +/− 239.813 ×10^3/mcl, the “RBC Count (×10^6/mcl)” value was 4.12 +/− 0.609 ×10^6/mcl and the “WBC Difference Count (%) Lymphocytes” value was 62.42 +/− 9.902%. Where the note is “Tumor +, mean +/- SD”, the “WBC Difference Count (%) Polymorph” value was 37.58 +/− 9.902%, the “WBC Total Count (×10^3/mcl)” value is 3.67 +/− 1.218 ×10^3/mcl and the “Difference in Weight (g) from Day 1 to 16” value is -2.5 ± 1.049 g. Moreover, the “HA Titre (Log2)” value under setting [1] is 2.17 +/− 0.408 Log2. For the same compound, under setting [2], the “effect on CP-induced immunosuppression / immunostimulatory activity (conclusion)” value is “no effect on body weight and CP-induced myelo and immunosuppression”; the “effect on CP-induced myelosuppression (conclusion)” value is “no effect on body weight and CP-induced myelo and immunosuppression”.
